Assay results reported in article PMC6735221, “A phase Ib dose-finding, pharmacokinetic study of the focal adhesion kinase inhibitor GSK2256098 and trametinib in patients with advanced solid tumours” (British Journal of Cancer, 2019).
Where two headings read alike, the source gives them in different places.

Assays:
mesothelioma = test system: mesothelioma; parameters: method as in PMID 27733373; conditions: GSK2256098 monotherapy, phase I; cited from earlier work
[1] = Adverse events (CTCAE v4.0) in patients; conditions: diarrhoea, lower respiratory tract infection, nausea, vomiting
Procedure: (§2) AEs were assessed throughout the study using the National Cancer Institute Common Terminology Criteria for Adverse Events v4.0 guidelines.[13]
(§3) Haematology and clinical chemistry laboratory tests were performed at baseline, Days 1, 8, 15, 22, 29, and every 4 weeks thereafter. Electrocardiograms were performed at baseline, Days 1, 15, 22, and then every 8 weeks from Day 1.

[2] = test system: Merlin-negative (encoded by NF-2) mesothelioma cells; parameters: method as in doi:10.1016/S0959-8049(12)72185-8; conditions: preclinical studies; cited from earlier work
[3] = GSK2256098 pharmacokinetics, whole blood, Day 15; assay type: in vivo, human; conditions: for Cmax: read-out: Cmax, Geometric mean (%CV); for Tmax: read-out: tmax, Median (range)
Procedure: (§1) Approximately 15 μL blood was then transferred from the “end-to-end” EDTA capillary tube onto the Whatman FTA DBS card.

[4] = GSK2256098 pharmacokinetics, dry blood spot, Day 15; assay type: in vivo; conditions: human, oral; for Cmax: read-out: Cmax, Geometric mean (%CV); for Tmax: read-out: tmax, Median (range)
Procedure: as §1

[5] = test system: human carboxylesterases (eg, hCES1b, hCES1c, and hCES2); parameters: method as in GSK data on file; conditions: in vitro investigation; ref GSK data on file; cited from earlier work
[6] = human, in vivo
Procedure: as §2, §3

[7] = human, in vivo; remark: listed apart in the source
Procedure: Blood samples for pharmacokinetic analysis were collected prior to morning dosing of GSK2256098 on Day 15, and at 1, 1.5, 2, 4, 6, 8 h after the morning dose of GSK2256098. Trametinib was administered immediately after the 1.5-hour pharmacokinetic sample was collected.
For PK analysis of trametinib, blood samples were taken via an indwelling cannula (or by direct venepuncture), collected into a di-potassium ethylenediaminetetraacetic acid (K2-EDTA) tube and immediately placed on water ice. Blood samples stored on wet ice were centrifuged within 1 h of collection at approximately 1500 g for 10 min at 4 °C. Supernatant plasma was transferred to a 3.6 mL Nunc tube and stored at 20 °C before shipment. Samples were shipped frozen on dry ice at agreed timepoints throughout the study to GSK Pharmaceuticals, Upper Merion, PA, USA, for analysis.
Plasma samples were analysed for trametinib using the validated analytical method based on liquid-liquid extraction, followed by high-performance liquid chromatography mass spectrometry (HPLC-MS/MS) analysis using a TurboIonSpray interface and multiple reaction monitoring. The lower limit of quantification (LLQ) for trametinib was 0.25 ng/mL using a 50-mL aliquot of human plasma with a higher limit of quantification (HLQ) of 250 ng/mL. Blood samples were analysed for GSK2256098 using a validated analytical method based on acetonitrile extraction from dried blood spots on the Whatman FTA DBS card, followed by HPLC/MS/MS analysis using a TurboIonSpray interface and multiple reaction monitoring. The LLQ for GSK2256098 was 10 ng/mL using a 3-mm diameter.
GSK2256098 whole-blood and dry blood spot concentration-time data as well as trametinib plasma concentration-time data were analysed by standard noncompartmental methods using Phoenix WinNonlin version 6.3. Calculations of all Pharmacokinetic parameters were based on doses of GSK2256098 and trametinib administered and actual sampling times from the respective dosing.

[8] = parameters: method as in PMID 22805291; conditions: Trametinib 2.0 mg monotherapy (n = 13), plasma; cited from earlier work
[9] = human, oral, GSK2256098 250 mg (n = 10) with trametinib, whole blood, Day 15
[10] = human, oral, GSK2256098 500 mg (n = 21) with trametinib, whole blood, Day 15
[11] = GSK2256098 250 mg (n = 6) with trametinib
[12] = GSK2256098 500 mg (n = 10) with trametinib

CONC(=O)c1ccccc1Nc1cc(Nc2cc(C)nn2C(C)C)ncc1Cl [GSK2256098]
PFS of Merlin-negative versus Merlin-positive mesothelioma patients (mesothelioma): nearly twice | relation of the most common serious AEs to GSK2256098 [1]: none of these were considered related to GSK2256098 | MTD in combination (high GSK2256098/low trametinib MTD, GSK2256098 part): 500 mg BID | MTD in combination (low GSK2256098/high trametinib MTD, GSK2256098 part): 250 mg BID | activity in vitro in Merlin-negative versus Merlin-positive mesothelioma cells [2]: at least 20 times | AUC ([3]; human, oral, GSK2256098 250 mg (n = 10) with trametinib, whole blood, Day 15, read-out: AUC(0–τ), Geometric mean (%CV)): 5470 ng·h/mL | Cmax [3, 9]: 1400 ng/mL | Tmax [3, 9]: 2 h | Cmax [3, 10]: 2450 ng/mL | Tmax [3, 10]: 2 h | median time to Cmax (tmax) ([3]; post-dose, across dose groups, with trametinib): ~2 h | exposure of GSK2256098 when co-administered with trametinib ([3]; versus previous monotherapy study): not altered | AUC ([4]; GSK2256098 250 mg (n = 6) with trametinib, read-out: AUC(0–τ), Geometric mean (%CV)): 4980 ng·h/mL | Cmax [4, 11]: 1230 ng/mL | Tmax [4, 11]: 2.8 h | Cmax [4, 12]: 2830 ng/mL | Tmax [4, 12]: 2 h | effect on deacetylation of trametinib by human carboxylesterases [5]: inhibits deacetylation of trametinib

CC(=O)Nc1cccc(-n2c(=O)n(C3CC3)c(=O)c3c(Nc4ccc(I)cc4F)n(C)c(=O)c(C)c32)c1 [trametinib]
subjects with an SAE that could be attributed to trametinib [6]: 15% | MTD in combination (high GSK2256098/low trametinib MTD, trametinib part): 0.375 mg QD | MTD in combination (low GSK2256098/high trametinib MTD, trametinib part): 0.5 mg QD | Trametinib exposure (Cmax and AUC) with GSK2256098 versus trametinib monotherapy [7]: 2- to 4 fold | median time to Cmax (tmax) [7]: 1.5 to 2.5 h | tmax of trametinib with GSK2256098 co-administration [7]: slightly delayed | Cmax, Geometric mean (%CV) [8]: 22.2 (28) ng/mL | tmax, Median (range) [8]: 1.75 (1.0–3.0) h
